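Grown in 96-well plates, cells were treated for 48 hours with each compound at five concentrations. Insufficient inhibition: endpoint recorded as highest concentration tested. TGI denotes the concentration required for complete inhibition of growth.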
test system: OVCAR-5 ovarian; assay: NCI tumour cell line growth inhibition, 48 h

SMILES	TGI [µM]
O=C1CC(=O)c2c(N3CCCC3)sc(N3CCCC3)c21	> 100
CN(C)c1nc2nonc2nc1Nc1ccccc1	> 100

test system: EKVX NSCLC; assay: NCI tumour cell line growth inhibition, 48 h

SMILES	TGI [µM]
CC1(C)OC(C(C)(C)O)C(C(C)(C)O)O1 (centres undefined)	> 100
COC(=O)[C@@H]1CCc2nc3ccccc3c(=O)n21	> 100
N#CC1=C(N)OC2=C(CCCc3ccc([N+](=O)[O-])cc32)C1c1ccccc1 (centres undefined)	35.2
O=C1CC(=O)c2c(N3CCCC3)sc(N3CCCC3)c21	> 100
CN(C)c1nc2nonc2nc1Nc1ccccc1	> 100

test system: MDA-MB-435; assay: NCI tumour cell line growth inhibition, 48 h

SMILES	TGI [µM]
COC(=O)[C@@H]1CCc2nc3ccccc3c(=O)n21	> 100
O=C1CC(=O)c2c(N3CCCC3)sc(N3CCCC3)c21	> 100

test system: MDA-N; assay: NCI tumour cell line growth inhibition, 48 h

SMILES	TGI [µM]
CC1(C)OC(C(C)(C)O)C(C(C)(C)O)O1 (centres undefined)	> 100
COC(=O)[C@@H]1CCc2nc3ccccc3c(=O)n21	> 100
N#CC1=C(N)OC2=C(CCCc3ccc([N+](=O)[O-])cc32)C1c1ccccc1 (centres undefined)	5.38
O=C1CC(=O)c2c(N3CCCC3)sc(N3CCCC3)c21	> 100
CN(C)c1nc2nonc2nc1Nc1ccccc1	> 100

test system: ACHN renal; assay: NCI tumour cell line growth inhibition, 48 h

SMILES	TGI [µM]
CC1(C)OC(C(C)(C)O)C(C(C)(C)O)O1 (centres undefined)	> 100
COC(=O)[C@@H]1CCc2nc3ccccc3c(=O)n21	> 100
N#CC1=C(N)OC2=C(CCCc3ccc([N+](=O)[O-])cc32)C1c1ccccc1 (centres undefined)	45.2
O=C1CC(=O)c2c(N3CCCC3)sc(N3CCCC3)c21	> 100
CN(C)c1nc2nonc2nc1Nc1ccccc1	> 100

test system: COLO 205 colon; assay: NCI tumour cell line growth inhibition, 48 h

SMILES	TGI [µM]
CC1(C)OC(C(C)(C)O)C(C(C)(C)O)O1 (centres undefined)	> 100
COC(=O)[C@@H]1CCc2nc3ccccc3c(=O)n21	> 100
N#CC1=C(N)OC2=C(CCCc3ccc([N+](=O)[O-])cc32)C1c1ccccc1 (centres undefined)	13.7
O=C1CC(=O)c2c(N3CCCC3)sc(N3CCCC3)c21	> 100
CN(C)c1nc2nonc2nc1Nc1ccccc1	> 100

test system: HOP-62 NSCLC; assay: NCI tumour cell line growth inhibition, 48 h

SMILES	TGI [µM]
CC1(C)OC(C(C)(C)O)C(C(C)(C)O)O1 (centres undefined)	> 100
COC(=O)[C@@H]1CCc2nc3ccccc3c(=O)n21	> 100
N#CC1=C(N)OC2=C(CCCc3ccc([N+](=O)[O-])cc32)C1c1ccccc1 (centres undefined)	17.4
O=C1CC(=O)c2c(N3CCCC3)sc(N3CCCC3)c21	> 100
CN(C)c1nc2nonc2nc1Nc1ccccc1	> 100

test system: HCT-116 colon; assay: NCI tumour cell line growth inhibition, 48 h

SMILES	TGI [µM]
CC1(C)OC(C(C)(C)O)C(C(C)(C)O)O1 (centres undefined)	> 100
COC(=O)[C@@H]1CCc2nc3ccccc3c(=O)n21	> 100
N#CC1=C(N)OC2=C(CCCc3ccc([N+](=O)[O-])cc32)C1c1ccccc1 (centres undefined)	16
O=C1CC(=O)c2c(N3CCCC3)sc(N3CCCC3)c21	> 100
CN(C)c1nc2nonc2nc1Nc1ccccc1	> 100

test system: NCI/ADR-RES ovarian; assay: NCI tumour cell line growth inhibition, 48 h

SMILES	TGI [µM]
CC1(C)OC(C(C)(C)O)C(C(C)(C)O)O1 (centres undefined)	> 100
COC(=O)[C@@H]1CCc2nc3ccccc3c(=O)n21	> 100
N#CC1=C(N)OC2=C(CCCc3ccc([N+](=O)[O-])cc32)C1c1ccccc1 (centres undefined)	7.45
O=C1CC(=O)c2c(N3CCCC3)sc(N3CCCC3)c21	> 100
CN(C)c1nc2nonc2nc1Nc1ccccc1	> 100

test system: MALME-3M melanoma; assay: NCI tumour cell line growth inhibition, 48 h

SMILES	TGI [µM]
CC1(C)OC(C(C)(C)O)C(C(C)(C)O)O1 (centres undefined)	> 100
N#CC1=C(N)OC2=C(CCCc3ccc([N+](=O)[O-])cc32)C1c1ccccc1 (centres undefined)	20.6
O=C1CC(=O)c2c(N3CCCC3)sc(N3CCCC3)c21	> 100
CN(C)c1nc2nonc2nc1Nc1ccccc1	> 100

test system: IGROV1 ovarian; assay: NCI tumour cell line growth inhibition, 48 h

SMILES	TGI [µM]
CC1(C)OC(C(C)(C)O)C(C(C)(C)O)O1 (centres undefined)	> 100
COC(=O)[C@@H]1CCc2nc3ccccc3c(=O)n21	> 100
N#CC1=C(N)OC2=C(CCCc3ccc([N+](=O)[O-])cc32)C1c1ccccc1 (centres undefined)	23.7
O=C1CC(=O)c2c(N3CCCC3)sc(N3CCCC3)c21	> 100
CN(C)c1nc2nonc2nc1Nc1ccccc1	> 100

test system: NCI-H522 lung; assay: NCI tumour cell line growth inhibition, 48 h

SMILES	TGI [µM]
CC1(C)OC(C(C)(C)O)C(C(C)(C)O)O1 (centres undefined)	> 100
COC(=O)[C@@H]1CCc2nc3ccccc3c(=O)n21	> 100
N#CC1=C(N)OC2=C(CCCc3ccc([N+](=O)[O-])cc32)C1c1ccccc1 (centres undefined)	10.9
O=C1CC(=O)c2c(N3CCCC3)sc(N3CCCC3)c21	> 100
CN(C)c1nc2nonc2nc1Nc1ccccc1	> 100

test system: SNB-75 CNS; assay: NCI tumour cell line growth inhibition, 48 h

SMILES	TGI [µM]
CC1(C)OC(C(C)(C)O)C(C(C)(C)O)O1 (centres undefined)	> 100
COC(=O)[C@@H]1CCc2nc3ccccc3c(=O)n21	> 100
N#CC1=C(N)OC2=C(CCCc3ccc([N+](=O)[O-])cc32)C1c1ccccc1 (centres undefined)	> 100
O=C1CC(=O)c2c(N3CCCC3)sc(N3CCCC3)c21	> 100
CN(C)c1nc2nonc2nc1Nc1ccccc1	> 100

test system: SF-295 CNS; assay: NCI tumour cell line growth inhibition, 48 h

SMILES	TGI [µM]
CC1(C)OC(C(C)(C)O)C(C(C)(C)O)O1 (centres undefined)	> 100
COC(=O)[C@@H]1CCc2nc3ccccc3c(=O)n21	> 100
N#CC1=C(N)OC2=C(CCCc3ccc([N+](=O)[O-])cc32)C1c1ccccc1 (centres undefined)	13.9
O=C1CC(=O)c2c(N3CCCC3)sc(N3CCCC3)c21	> 100
CN(C)c1nc2nonc2nc1Nc1ccccc1	> 100

test system: MDA-MB-231 breast; assay: NCI tumour cell line growth inhibition, 48 h

SMILES	TGI [µM]
CC1(C)OC(C(C)(C)O)C(C(C)(C)O)O1 (centres undefined)	> 100
COC(=O)[C@@H]1CCc2nc3ccccc3c(=O)n21	> 100
N#CC1=C(N)OC2=C(CCCc3ccc([N+](=O)[O-])cc32)C1c1ccccc1 (centres undefined)	> 100
CN(C)c1nc2nonc2nc1Nc1ccccc1	> 100

test system: HOP-92 NSCLC; assay: NCI tumour cell line growth inhibition, 48 h

SMILES	TGI [µM]
COC(=O)[C@@H]1CCc2nc3ccccc3c(=O)n21	> 100
N#CC1=C(N)OC2=C(CCCc3ccc([N+](=O)[O-])cc32)C1c1ccccc1 (centres undefined)	44.9
